ChEMBL document CHEMBL4507282, “Data for DCP probe BI-1950” (2021)

Columns and labels:
[1] = target: Voltage-dependent L-type calcium channel subunit alpha-1C (DHP site) (Rattus norvegicus, UniProt P22002); assay: CA+/DHPSI/RA Eurofins-Panlabs selectivity data (BI); conditions: read-out: % Ctrl
[2] = target: Calcitonin-gene-related peptide receptor, CALCRL/RAMP1 (Homo sapiens) (UniProt O60894+Q16602); assay: CGRP/HU Eurofins-Panlabs selectivity data (BI); format: protein-complex assay; conditions: Compound concentration 10.0 uM
[3] = target: T1, D(4) dopamine receptor (Homo sapiens) (UniProt P21917); assay: D4.2/H Eurofins-Panlabs selectivity data (BI); conditions: Compound concentration 10.0 uM
T1 sequence (whole entry): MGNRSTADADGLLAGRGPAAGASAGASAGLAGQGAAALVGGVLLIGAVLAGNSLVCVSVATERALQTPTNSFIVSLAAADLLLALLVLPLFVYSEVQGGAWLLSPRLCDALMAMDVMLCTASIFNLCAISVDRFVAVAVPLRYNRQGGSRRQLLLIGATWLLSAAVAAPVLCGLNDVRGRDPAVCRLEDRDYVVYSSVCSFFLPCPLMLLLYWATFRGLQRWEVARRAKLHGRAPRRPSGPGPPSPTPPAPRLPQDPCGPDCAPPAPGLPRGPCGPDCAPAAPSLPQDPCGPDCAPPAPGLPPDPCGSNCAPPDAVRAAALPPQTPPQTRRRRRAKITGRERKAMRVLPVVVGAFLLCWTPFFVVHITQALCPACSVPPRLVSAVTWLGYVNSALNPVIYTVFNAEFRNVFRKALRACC

[4] = target: GABA B receptor (Rattus norvegicus) (UniProt Q9Z0U4+O88871); assay: GABAB/RA Eurofins-Panlabs selectivity data (BI); format: protein-complex assay; conditions: Compound concentration 10.0 uM
[5] = target: Acetylcholine receptor subunit alpha (Homo sapiens) (UniProt P02708); assay: NACH/H Eurofins-Panlabs selectivity data (BI); conditions: Compound concentration 10.0 uM
[6] = tested on: Tyrosine-protein kinase ABL1 (Homo sapiens), P00519 [F317L]; conditions: Compound concentration 1000.0 nM
[7] = target: Tyrosine-protein kinase ABL2 (Homo sapiens) (UniProt P42684); conditions: Compound concentration 1000.0 nM
[8] = target: Cyclin-dependent kinase 11B (Homo sapiens) (UniProt P21127); conditions: Compound concentration 1000.0 nM
[9] = target: Cyclin-dependent kinase 8 (Homo sapiens) (UniProt P49336); conditions: Compound concentration 1000.0 nM
[10] = target: Receptor tyrosine-protein kinase erbB-3 (Homo sapiens) (UniProt P21860); conditions: Compound concentration 1000.0 nM
[11] = tested on: Receptor-type tyrosine-protein kinase FLT3 (Homo sapiens), P36888 [D835H]; conditions: Compound concentration 1000.0 nM
[12] = target: Mitogen-activated protein kinase kinase kinase kinase 4 (Homo sapiens) (UniProt O95819); conditions: Compound concentration 1000.0 nM
[13] = target: Phosphatidylinositol 4-phosphate 3-kinase C2 domain-containing subunit beta (Homo sapiens) (UniProt O00750); conditions: Compound concentration 1000.0 nM
[14] = tested on: Phosphatidylinositol 4,5-bisphosphate 3-kinase catalytic subunit alpha isoform (Homo sapiens), P42336 [C420R]; conditions: Compound concentration 1000.0 nM
[15] = target: Phosphatidylinositol 4-phosphate 5-kinase type-1 alpha (Homo sapiens) (UniProt Q99755); conditions: Compound concentration 1000.0 nM
[16] = target: Protein kinase C epsilon type (Homo sapiens) (UniProt Q02156); conditions: Compound concentration 1000.0 nM
[17] = target: Ribosomal protein S6 kinase alpha-4 (Homo sapiens) (UniProt O75676); conditions: Compound concentration 1000.0 nM
[18] = target: Serine/threonine-protein kinase Sgk1 (Homo sapiens) (UniProt O00141); conditions: Compound concentration 1000.0 nM
[19] = target: SRSF protein kinase 3 (Homo sapiens) (UniProt Q9UPE1); conditions: Compound concentration 1000.0 nM
[20] = target: Serine/threonine-protein kinase WNK4 (Homo sapiens) (UniProt Q96J92); conditions: Compound concentration 1000.0 nM
[21] = target: 5-hydroxytryptamine receptor 1A (Homo sapiens) (UniProt P08908); conditions: Compound concentration 10.0 uM
[22] = target: 5-hydroxytryptamine receptor 6 (Homo sapiens) (UniProt P50406); conditions: Compound concentration 10.0 uM
[23] = target: Mu-type opioid receptor (Homo sapiens) (UniProt P35372); conditions: Compound concentration 10.0 uM
[24] = target: Delta-type opioid receptor (Homo sapiens) (UniProt P41143); conditions: Compound concentration 10.0 uM
[25] = target: Histamine H2 receptor (Homo sapiens) (UniProt P25021); conditions: Compound concentration 10.0 uM
[26] = target: Beta-3 adrenergic receptor (Homo sapiens) (UniProt P13945); conditions: Compound concentration 10.0 uM
[27] = target: Sigma non-opioid intracellular receptor 1 (Homo sapiens) (UniProt Q99720); conditions: Compound concentration 10.0 uM
tissue or blood = format: tissue-based; conditions: Homo sapiens
[28] = target: Alpha-2A adrenergic receptor (Homo sapiens) (UniProt P08913); conditions: Compound concentration 10.0 uM
[29] = target: Muscarinic acetylcholine receptor M5 (Homo sapiens) (UniProt P08912); conditions: Compound concentration 10.0 uM

Voltage-dependent L-type calcium channel subunit alpha-1C (DHP site), sequence (P22002 whole entry): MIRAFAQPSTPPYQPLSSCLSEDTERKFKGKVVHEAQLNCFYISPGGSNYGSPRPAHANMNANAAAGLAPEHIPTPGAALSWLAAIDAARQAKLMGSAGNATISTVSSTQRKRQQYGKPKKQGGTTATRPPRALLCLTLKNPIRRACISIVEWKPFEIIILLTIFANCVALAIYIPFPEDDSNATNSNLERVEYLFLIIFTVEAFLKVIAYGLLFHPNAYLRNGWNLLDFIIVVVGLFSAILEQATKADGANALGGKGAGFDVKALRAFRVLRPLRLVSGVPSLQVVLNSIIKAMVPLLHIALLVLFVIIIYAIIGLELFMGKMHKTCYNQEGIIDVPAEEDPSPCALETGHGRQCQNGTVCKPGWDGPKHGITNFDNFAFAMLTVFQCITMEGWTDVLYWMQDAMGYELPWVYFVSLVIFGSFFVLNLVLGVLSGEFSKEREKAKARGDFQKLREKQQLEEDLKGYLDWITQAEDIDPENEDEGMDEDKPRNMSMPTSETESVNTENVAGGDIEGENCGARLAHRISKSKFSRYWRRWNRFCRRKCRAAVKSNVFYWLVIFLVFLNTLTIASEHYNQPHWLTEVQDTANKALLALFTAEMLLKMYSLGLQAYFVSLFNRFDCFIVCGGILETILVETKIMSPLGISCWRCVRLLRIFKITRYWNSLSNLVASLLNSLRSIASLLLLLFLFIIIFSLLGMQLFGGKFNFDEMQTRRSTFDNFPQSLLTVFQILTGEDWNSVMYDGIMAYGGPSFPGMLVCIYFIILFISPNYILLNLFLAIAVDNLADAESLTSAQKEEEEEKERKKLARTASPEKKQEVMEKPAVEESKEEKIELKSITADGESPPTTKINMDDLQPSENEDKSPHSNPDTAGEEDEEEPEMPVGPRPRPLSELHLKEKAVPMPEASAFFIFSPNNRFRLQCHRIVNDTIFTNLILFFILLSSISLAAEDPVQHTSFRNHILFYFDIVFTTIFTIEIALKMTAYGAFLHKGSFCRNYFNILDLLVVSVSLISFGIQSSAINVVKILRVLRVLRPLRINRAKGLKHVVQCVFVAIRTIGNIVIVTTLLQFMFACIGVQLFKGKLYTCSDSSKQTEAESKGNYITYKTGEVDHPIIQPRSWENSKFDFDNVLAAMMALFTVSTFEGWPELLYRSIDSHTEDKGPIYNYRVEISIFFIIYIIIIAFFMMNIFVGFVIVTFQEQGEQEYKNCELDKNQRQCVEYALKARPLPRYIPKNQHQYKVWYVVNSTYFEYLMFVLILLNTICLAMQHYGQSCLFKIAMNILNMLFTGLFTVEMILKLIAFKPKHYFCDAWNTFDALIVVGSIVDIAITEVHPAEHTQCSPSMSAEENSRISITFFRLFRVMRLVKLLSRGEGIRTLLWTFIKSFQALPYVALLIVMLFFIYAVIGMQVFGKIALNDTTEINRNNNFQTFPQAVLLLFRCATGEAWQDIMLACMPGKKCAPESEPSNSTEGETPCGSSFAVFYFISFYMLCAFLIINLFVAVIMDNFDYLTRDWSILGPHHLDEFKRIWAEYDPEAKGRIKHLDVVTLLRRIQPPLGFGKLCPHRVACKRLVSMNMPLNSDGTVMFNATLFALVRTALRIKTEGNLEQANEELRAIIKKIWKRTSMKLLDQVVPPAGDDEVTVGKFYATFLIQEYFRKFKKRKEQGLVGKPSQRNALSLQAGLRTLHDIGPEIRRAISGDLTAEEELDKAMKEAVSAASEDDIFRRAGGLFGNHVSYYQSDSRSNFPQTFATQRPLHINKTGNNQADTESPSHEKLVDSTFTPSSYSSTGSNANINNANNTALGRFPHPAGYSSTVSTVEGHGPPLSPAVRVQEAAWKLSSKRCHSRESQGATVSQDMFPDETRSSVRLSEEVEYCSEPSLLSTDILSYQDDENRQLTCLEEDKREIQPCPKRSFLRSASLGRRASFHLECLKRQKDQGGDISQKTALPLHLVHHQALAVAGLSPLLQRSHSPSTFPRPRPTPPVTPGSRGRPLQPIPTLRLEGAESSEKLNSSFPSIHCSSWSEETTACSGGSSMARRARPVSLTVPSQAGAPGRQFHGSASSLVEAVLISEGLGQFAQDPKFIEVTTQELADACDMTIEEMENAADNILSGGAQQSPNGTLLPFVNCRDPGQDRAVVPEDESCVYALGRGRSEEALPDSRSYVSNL
Cyclin-dependent kinase 11B (Homo sapiens), sequence (P21127 whole entry): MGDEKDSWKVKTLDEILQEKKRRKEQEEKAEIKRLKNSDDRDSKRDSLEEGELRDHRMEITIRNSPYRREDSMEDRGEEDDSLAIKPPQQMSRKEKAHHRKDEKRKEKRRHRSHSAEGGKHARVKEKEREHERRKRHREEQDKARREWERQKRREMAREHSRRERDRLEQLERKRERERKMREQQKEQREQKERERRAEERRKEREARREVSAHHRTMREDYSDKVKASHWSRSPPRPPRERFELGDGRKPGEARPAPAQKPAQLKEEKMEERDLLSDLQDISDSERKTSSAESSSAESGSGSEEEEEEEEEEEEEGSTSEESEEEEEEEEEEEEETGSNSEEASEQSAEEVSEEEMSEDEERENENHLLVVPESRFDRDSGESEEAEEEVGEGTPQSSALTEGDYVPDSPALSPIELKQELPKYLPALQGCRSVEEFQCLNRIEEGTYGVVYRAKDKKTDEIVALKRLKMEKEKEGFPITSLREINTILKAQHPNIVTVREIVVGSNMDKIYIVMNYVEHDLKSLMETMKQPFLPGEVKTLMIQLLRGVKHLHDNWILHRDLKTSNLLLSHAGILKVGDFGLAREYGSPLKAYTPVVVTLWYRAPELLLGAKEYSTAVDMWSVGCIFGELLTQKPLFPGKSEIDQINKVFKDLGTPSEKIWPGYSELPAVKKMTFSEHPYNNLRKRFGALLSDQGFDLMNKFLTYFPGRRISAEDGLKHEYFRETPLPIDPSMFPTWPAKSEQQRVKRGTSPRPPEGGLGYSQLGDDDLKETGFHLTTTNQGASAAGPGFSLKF
Phosphatidylinositol 4-phosphate 3-kinase C2 domain-containing subunit beta (Homo sapiens), sequence (O00750 whole entry, the tested form may be a part, canonical isoform): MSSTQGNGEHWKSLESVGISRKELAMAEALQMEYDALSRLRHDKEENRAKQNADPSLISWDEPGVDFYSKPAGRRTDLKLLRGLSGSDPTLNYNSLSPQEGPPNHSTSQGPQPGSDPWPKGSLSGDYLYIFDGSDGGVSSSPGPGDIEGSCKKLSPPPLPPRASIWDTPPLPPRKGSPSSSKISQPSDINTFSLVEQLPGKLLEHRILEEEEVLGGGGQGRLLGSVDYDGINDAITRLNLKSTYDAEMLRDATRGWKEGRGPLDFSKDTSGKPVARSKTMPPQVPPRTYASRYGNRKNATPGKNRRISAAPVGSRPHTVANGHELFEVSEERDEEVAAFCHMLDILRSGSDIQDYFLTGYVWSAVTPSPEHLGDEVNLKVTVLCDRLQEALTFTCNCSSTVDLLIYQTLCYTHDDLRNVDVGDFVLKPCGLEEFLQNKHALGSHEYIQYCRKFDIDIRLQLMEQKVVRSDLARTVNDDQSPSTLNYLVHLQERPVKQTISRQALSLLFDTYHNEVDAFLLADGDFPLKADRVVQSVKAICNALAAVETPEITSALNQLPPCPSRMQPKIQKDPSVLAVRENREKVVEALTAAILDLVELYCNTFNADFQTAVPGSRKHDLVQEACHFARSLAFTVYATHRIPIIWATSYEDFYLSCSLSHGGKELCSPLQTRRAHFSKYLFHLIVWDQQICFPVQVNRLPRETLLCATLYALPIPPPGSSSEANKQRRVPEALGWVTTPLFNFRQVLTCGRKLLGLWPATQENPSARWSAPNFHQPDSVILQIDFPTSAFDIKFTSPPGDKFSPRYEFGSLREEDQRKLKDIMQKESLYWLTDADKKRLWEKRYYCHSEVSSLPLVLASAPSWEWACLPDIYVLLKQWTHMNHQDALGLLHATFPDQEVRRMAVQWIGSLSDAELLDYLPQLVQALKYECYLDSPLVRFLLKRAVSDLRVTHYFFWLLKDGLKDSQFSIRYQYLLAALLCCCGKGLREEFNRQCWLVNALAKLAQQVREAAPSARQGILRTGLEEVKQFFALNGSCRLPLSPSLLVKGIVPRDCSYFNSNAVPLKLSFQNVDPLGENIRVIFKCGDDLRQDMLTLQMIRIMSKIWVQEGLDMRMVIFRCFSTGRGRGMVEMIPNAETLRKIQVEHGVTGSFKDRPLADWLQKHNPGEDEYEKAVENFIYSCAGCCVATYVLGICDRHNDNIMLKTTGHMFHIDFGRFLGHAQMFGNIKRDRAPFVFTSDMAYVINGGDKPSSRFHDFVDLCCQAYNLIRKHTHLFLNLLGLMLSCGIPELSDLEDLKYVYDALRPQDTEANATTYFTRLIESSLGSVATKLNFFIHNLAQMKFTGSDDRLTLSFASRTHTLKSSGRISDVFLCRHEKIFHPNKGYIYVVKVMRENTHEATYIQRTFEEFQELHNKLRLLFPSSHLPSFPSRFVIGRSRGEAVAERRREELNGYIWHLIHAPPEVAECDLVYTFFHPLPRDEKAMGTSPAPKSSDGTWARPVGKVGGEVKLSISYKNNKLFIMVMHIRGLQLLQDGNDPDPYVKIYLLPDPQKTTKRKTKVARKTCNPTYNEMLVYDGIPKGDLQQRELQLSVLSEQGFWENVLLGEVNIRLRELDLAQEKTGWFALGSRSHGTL
Delta-type opioid receptor (Homo sapiens), sequence (P41143 whole entry): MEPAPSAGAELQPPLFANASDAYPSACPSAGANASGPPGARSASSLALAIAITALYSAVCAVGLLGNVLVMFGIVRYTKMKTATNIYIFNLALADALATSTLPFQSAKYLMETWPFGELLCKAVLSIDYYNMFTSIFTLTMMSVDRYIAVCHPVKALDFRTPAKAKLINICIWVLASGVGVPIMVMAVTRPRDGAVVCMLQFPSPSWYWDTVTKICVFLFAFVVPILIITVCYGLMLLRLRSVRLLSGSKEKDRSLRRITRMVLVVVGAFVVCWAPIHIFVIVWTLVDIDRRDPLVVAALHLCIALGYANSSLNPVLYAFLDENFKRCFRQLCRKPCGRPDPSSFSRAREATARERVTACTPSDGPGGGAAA

| SMILES | residual activity [6] | residual activity [7] | residual activity [8] | residual activity [9] | residual activity [10] | residual activity [11] | residual activity [12] | residual activity [13] | residual activity [14] | residual activity [15] | residual activity [16] | residual activity [17] | residual activity [18] | residual activity [19] | residual activity [20] | inhibition [22] | inhibition [23] | inhibition [24] | inhibition [25] | also measured |
| --- | --- | --- | --- | --- | --- | --- | --- | --- | --- | --- | --- | --- | --- | --- | --- | --- | --- | --- | --- | --- |
| C[C@H](NC(=O)c1cnc2n1[C@](C)(Cc1ccc(C#N)cc1)C(=O)N2c1cc(Cl)c(F)c(Cl)c1)C(=O)NC1(c2ccccn2)CC1 [BI 1950] | 100% | 83% | 100% | 100% | 100% | 100% | 100% | 85% | 93% | 100% | 100% | 92% | 100% | 100% | 100% | 6.67% | 17.4% | -0.33% | 11.8% | activity at 0.03 µM ([1]; compound concentration 0.03 uM): 97% (not active); activity at 0.1 µM ([1]; compound concentration 0.1 uM): 98% (not active); activity at 0.3 µM ([1]; compound concentration 0.3 uM): 94% (not active); activity at 1 µM ([1]; compound concentration 1 uM): 81% (not active); activity at 3 µM ([1]; compound concentration 3 uM): 58% (not active); activity at 10 µM ([1]; compound concentration 10 uM): 28%; residual activity [2]: 105%; residual activity [3]: 86%; residual activity [4]: 111%; residual activity [5]: 112%; inhibition [21]: -9.74%; inhibition [26]: 12.4%; inhibition [27]: -6.44% |
| C[C@@]1(Cc2ccc(C#N)cc2)C(=O)N(c2cc(Cl)cc(Cl)c2)c2ncc(C(=O)NC3(c4nc(C5CCC5)no4)CC3)n21 [BI 9446] | 86% | 78% | 100% | 100% | 96% | 100% | 91% | 100% | 89% | 100% | 100% | 100% | 100% | 100% | 100% | 16.1% | 31.1% | 8.3% | 11% | IC50 (tissue or blood): > 1000 nM; inhibition [28]: 12.1%; inhibition [29]: -8.46% |
